Data on one compound can be found in patent US20200003756A1, “METHOD FOR OBSERVING SEBACEOUS GLAND” (MANDOM CORPORATION, priority 2017, published 2020).

In assay [1] the test system is sebaceous-gland-structure A. The assay can be described thus: Observation of inside of sebaceous-gland-structure, lipid droplets of sebum in outermost layer / degree of progress of sebum production (Example 2). In kind it is cell-based. Conditions: test sample B, linoleic acid 1×10^−4 M, 24 hours (Experiment number 8); FIGS. 8 and 10. On the procedure: Linoleic acid and linoleic acid receptor antagonist (manufactured by Abeam plc, trade name: GSK-3787) as test substances were added to the mixed medium obtained in Preparation Example 1 so that the concentration of linoleic acid was 1×10^−4 M and so that the concentration of the test substance was 1 μM, to obtain a test sample D.
One milliliter of the test sample A was added to each well of a 24-well plate. Next, the sebaceous-gland-structure A obtained in Preparation Example 6 was cultured in a suspended state in the test sample A in each well of the 24-well plate in the presence of 5% by volume carbon dioxide at 37° C. for 24 hours, to contact the sebaceous-gland-structure A with the test sample A (Experiment number 7). […]
Furthermore, the state of each cell of 40 cells in the outermost layer shown in each figure was evaluated by using the results shown in FIGS. 7 to 9 on the basis of the evaluation criterion described below. […]
Next, the degree of progress of sebum production in the sebaceous gland cell contained in the sebaceous-gland-structure A was evaluated by calculating the mean value of the points in the 40 cells in the outermost layer in FIGS. 7 to 9. […]

Assay [2] concerns sebaceous-gland-structure A. The assay can be described thus: Degree of sebum production from three-dimensional image analysis of outermost layer (Example 4). In kind it is cell-based. Conditions: linoleic acid 1×10^−4 M, 24 hours. On the procedure: Linoleic acid and phytic acid as test substances were added to the mixed medium obtained in Preparation Example 1 (test sample A) so that the concentration of linoleic acid was 1×10^−4M and so that the concentration of the test sample was 100 μM, to obtain a test sample E. One milliliter of the test sample A was added to each well of a 24-well plate. Text, the sebaceous-gland-structure A obtained in Preparation Example 6 was cultured in a suspended state in the test sample A contained in each well of the 24-well plate in the presence of 5% by volume carbon dioxide at 37° C. for 24 hours, to contact the sebaceous-gland-structure A with the test sample A (Experiment number 10). In addition, the sebaceous-gland-structure A was contacted with the test sample B (Experiment number 11) or the test sample E (Experiment number 12) in the same manner as in Experiment, number 10 except that in Experiment number 10, the test sample B obtained in Example 1(1) (Experiment number 11) or the test sample E obtained in Example 4(1) (Experiment number 12) was used in place of the test sample A. Each of observation samples of Experiment numbers 10 to 12 was obtained in the same manner as in Preparation Example 7 except that in Preparation Example 7, the cultured sebaceous-gland-structure A obtained in Example 4(2) (Experiment numbers 10 to 12) was used in place of the cultured sebaceous-gland-structure A obtained in Preparation Example 6. The appearance of the sebaceous-gland-structure A contained in the observation sample of each of Experiment numbers 10 to 12 obtained in Example 4(3) was observed under a confocal microscope by using image analysis software (manufactured b Bitplane AG, trade name: Imaris), thereby giving three-dimensional image of the sebaceous-gland-structure A. Next, information of the outermost layer of the sebaceous-gland-structure A was extracted from the data of the resulting three-dimensional image by using image analysis software (manufactured by Bitplane AG, trade name: Imaris). Thereafter, the whole volume of the cells present in the outermost layer was calculated from the extracted information, and thereafter the sebum droplets contained in the outermost layer were counted. Using the whole volume of the cells present in the outermost layer and the number of lipid droplets of the sebum the degree of sebum production was calculated according to Formula (I): [Degree of Sebum production]=[Number of lipid droplets of sebum]/[Whole volume of cells present in outermost layer] (I)

Consider `CCCCC/C=C\C/C=C\CCCCCCCC(=O)O` [linoleic acid, Linoleic acid], for which, in assay [1], the “lipid droplets of sebum in the outermost layer of the sebaceous-gland-structure A” value is recorded as “lipid droplets of sebum were found”. The sebum production-regulating action entry in assay [2] (conclusion from FIG. 11) was “sebum production-promoting action”. Besides, in assay [2] (test sample B, compared with test sample A not containing linoleic acid, FIG. 11), the “degree of sebum production (number of lipid droplets of sebum / whole volume of cells present in outermost layer)” value is “higher”.
